Tests used:
Assay in all cases: relative viability (nuclei count vs DMSO), 5 days (fraction); higher = more cells survive
NCI-H1666 = system: NCI-H1666
In short: (§1)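 Each reported value is a median over duplicate plates. It expresses relative viability: treated-well nuclei count divided by vehicle-well nuclei count. Lung cancer cell lines in 1536-well plates were dosed by pin tool a day after seeding, alone with one drug or with a fixed anchor-drug dose plus five library-drug doses (not always all listed) in √10 steps, and nuclei were counted after 5 days.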

NCI-H441 = system: NCI-H441
In short: as §1

LK-2 = system: LK-2
In short: as §1

EKVX = system: EKVX
In short: as §1

NCI-H1755 = system: NCI-H1755
In short: as §1

NCI-H23 = system: NCI-H23
In short: as §1

SK-MES-1 = system: SK-MES-1
In short: as §1

NCI-H596 = system: NCI-H596
In short: as §1

SW 900 = system: SW 900
In short: as §1

NCI-H1975 = system: NCI-H1975
In short: as §1

PC-3 [JPC-3] = system: PC-3 [JPC-3]
In short: as §1

EMC-BAC-2 = system: EMC-BAC-2
In short: as §1

NCI-H1563 = system: NCI-H1563
In short: as §1

ChaGo-K-1 = system: ChaGo-K-1
In short: as §1

H3255 = system: H3255
In short: as §1

LOU-NH91 = system: LOU-NH91
In short: as §1

NCI-H520 = system: NCI-H520
In short: as §1

A-427 = system: A-427
In short: as §1

COR-L 105 = system: COR-L 105
In short: as §1

NCI-H1734 = system: NCI-H1734
In short: as §1

NCI-H2170 = system: NCI-H2170
In short: as §1

SMILES: CCN(CC)CCCCNc1ncc2cc(-c3cc(OC)cc(OC)c3)c(NC(=O)NC(C)(C)C)nc2n1 + CCNC(=O)c1noc(-c2cc(C(C)C)c(O)cc2O)c1-c1ccc(CN2CCOCC2)cc1 [Luminespib] (partner 0.01 µM)
- relative viability (NCI-H1666; first compound 0.01 µM): 0.944
- relative viability (NCI-H1666; first compound 0.03162 µM): 0.971
- relative viability (NCI-H1666; first compound 0.1 µM): 1.04
- relative viability (NCI-H1666; first compound 0.3162 µM): 1.02
- relative viability (NCI-H1666; first compound 1 µM): 0.794
- relative viability (NCI-H441; first compound 0.01 µM): 0.313
- relative viability (NCI-H441; first compound 0.03162 µM): 0.422
- relative viability (NCI-H441; first compound 0.1 µM): 0.344
- relative viability (NCI-H441; first compound 0.3162 µM): 0.353
- relative viability (NCI-H441; first compound 1 µM): 0.362
- relative viability (LK-2; first compound 0.01 µM): 0.153
- relative viability (LK-2; first compound 0.03162 µM): 0.207
- relative viability (LK-2; first compound 0.1 µM): 0.202
- relative viability (LK-2; first compound 0.3162 µM): 0.183
- relative viability (LK-2; first compound 1 µM): 0.184
- relative viability (EKVX; first compound 0.01 µM): 0.842
- relative viability (EKVX; first compound 0.03162 µM): 0.909
- relative viability (EKVX; first compound 0.1 µM): 0.934
- relative viability (EKVX; first compound 0.3162 µM): 0.971
- relative viability (EKVX; first compound 1 µM): 0.83
- relative viability (NCI-H1755; first compound 0.01 µM): 0.455
- relative viability (NCI-H1755; first compound 0.03162 µM): 0.694
- relative viability (NCI-H1755; first compound 0.1 µM): 0.458
- relative viability (NCI-H1755; first compound 0.3162 µM): 0.606
- relative viability (NCI-H1755; first compound 1 µM): 0.44
- relative viability (NCI-H23; first compound 0.01 µM): 0.214
- relative viability (NCI-H23; first compound 0.03162 µM): 0.203
- relative viability (NCI-H23; first compound 0.1 µM): 0.241
- relative viability (NCI-H23; first compound 0.3162 µM): 0.202
- relative viability (NCI-H23; first compound 1 µM): 0.205
- relative viability (SK-MES-1; first compound 0.01 µM): 0.97
- relative viability (SK-MES-1; first compound 0.03162 µM): 0.762
- relative viability (SK-MES-1; first compound 0.1 µM): 0.832
- relative viability (SK-MES-1; first compound 0.3162 µM): 0.798
- relative viability (SK-MES-1; first compound 1 µM): 0.576
- relative viability (NCI-H596; first compound 0.01 µM): 1.03
- relative viability (NCI-H596; first compound 0.03162 µM): 1.05
- relative viability (NCI-H596; first compound 0.1 µM): 1.02
- relative viability (NCI-H596; first compound 0.3162 µM): 1.01
- relative viability (NCI-H596; first compound 1 µM): 0.621
- relative viability (SW 900; first compound 0.01 µM): 0.172
- relative viability (SW 900; first compound 0.03162 µM): 0.182
- relative viability (SW 900; first compound 0.3162 µM): 0.15
- relative viability (SW 900; first compound 1 µM): 0.188
- relative viability (NCI-H1975; first compound 0.01 µM): 0.161
- relative viability (NCI-H1975; first compound 0.03162 µM): 0.148
- relative viability (NCI-H1975; first compound 0.1 µM): 0.201
- relative viability (NCI-H1975; first compound 0.3162 µM): 0.366
- relative viability (NCI-H1975; first compound 1 µM): 0.199
- relative viability (PC-3 [JPC-3]; first compound 0.01 µM): 0.814
- relative viability (PC-3 [JPC-3]; first compound 0.03162 µM): 0.738
- relative viability (PC-3 [JPC-3]; first compound 0.1 µM): 0.725
- relative viability (PC-3 [JPC-3]; first compound 0.3162 µM): 0.746
- relative viability (PC-3 [JPC-3]; first compound 1 µM): 0.662
- relative viability (EMC-BAC-2; first compound 0.01 µM): 1.27
- relative viability (EMC-BAC-2; first compound 0.03162 µM): 1.16
- relative viability (EMC-BAC-2; first compound 0.1 µM): 1.08
- relative viability (EMC-BAC-2; first compound 0.3162 µM): 1.35
- relative viability (EMC-BAC-2; first compound 1 µM): 1.05
- relative viability (NCI-H1563; first compound 0.01 µM): 0.537
- relative viability (NCI-H1563; first compound 0.03162 µM): 0.532
- relative viability (NCI-H1563; first compound 0.1 µM): 0.549
- relative viability (NCI-H1563; first compound 0.3162 µM): 0.597
- relative viability (NCI-H1563; first compound 1 µM): 0.545
- relative viability (ChaGo-K-1; first compound 0.01 µM): 0.618
- relative viability (ChaGo-K-1; first compound 0.03162 µM): 0.638
- relative viability (ChaGo-K-1; first compound 0.1 µM): 0.727
- relative viability (ChaGo-K-1; first compound 0.3162 µM): 0.679
- relative viability (ChaGo-K-1; first compound 1 µM): 0.811
- relative viability (H3255; first compound 0.01 µM): 0.73
- relative viability (H3255; first compound 0.03162 µM): 0.824
- relative viability (H3255; first compound 0.1 µM): 0.915
- relative viability (H3255; first compound 0.3162 µM): 0.992
- relative viability (H3255; first compound 1 µM): 0.833
- relative viability (LOU-NH91; first compound 0.01 µM): 0.338
- relative viability (LOU-NH91; first compound 0.03162 µM): 0.364
- relative viability (LOU-NH91; first compound 0.1 µM): 0.36
- relative viability (LOU-NH91; first compound 0.3162 µM): 0.421
- relative viability (LOU-NH91; first compound 1 µM): 0.356
- relative viability (NCI-H520; first compound 0.01 µM): 0.203
- relative viability (NCI-H520; first compound 0.03162 µM): 0.228
- relative viability (NCI-H520; first compound 0.1 µM): 0.229
- relative viability (NCI-H520; first compound 0.3162 µM): 0.289
- relative viability (NCI-H520; first compound 1 µM): 0.207
- relative viability (A-427; first compound 0.01 µM): 1.01
- relative viability (A-427; first compound 0.03162 µM): 1.01
- relative viability (A-427; first compound 0.1 µM): 1.09
- relative viability (A-427; first compound 0.3162 µM): 1.03
- relative viability (A-427; first compound 1 µM): 0.872
- relative viability (COR-L 105; first compound 0.01 µM): 0.909
- relative viability (COR-L 105; first compound 0.03162 µM): 0.698
- relative viability (COR-L 105; first compound 0.1 µM): 0.73
- relative viability (COR-L 105; first compound 0.3162 µM): 0.795
- relative viability (COR-L 105; first compound 1 µM): 0.68
- relative viability (NCI-H1734; first compound 0.01 µM): 0.0982
- relative viability (NCI-H1734; first compound 0.03162 µM): 0.189
- relative viability (NCI-H1734; first compound 0.1 µM): 0.19
- relative viability (NCI-H1734; first compound 0.3162 µM): 0.197
- relative viability (NCI-H1734; first compound 1 µM): 0.178
- relative viability (NCI-H2170; first compound 0.01 µM): 0.446
- relative viability (NCI-H2170; first compound 0.03162 µM): 0.857
- relative viability (NCI-H2170; first compound 0.1 µM): 0.668
- relative viability (NCI-H2170; first compound 0.3162 µM): 0.801
- relative viability (NCI-H2170; first compound 1 µM): 0.937

— the supplement of paper PMC10307832
